Data from the supplement of paper PMC11061612.

What was measured:
Capivasertib = compound: C1CN(CCC1(C(=O)N[C@@H](CCO)C2=CC=C(C=C2)Cl)N)C3=NC=NC4=C3C=CN4 [Capivasertib]; conditions: max 10 µM
Procedure, shortened: (§1)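 In 1536-well plates, cancer cell lines in 7.5 μl DMEM/F12 or RPMI with 10% FBS spent 24 hours at 37°C and 5% CO2 and were then dosed for 72 hours with final DMSO typically 0.2%. Viability was read by CellTiter-Glo 2.0 luminescence and scaled between blank-well and DMSO-well means. The single-agent IC50 was fitted from dose responses using a logistic curve in a non-linear mixed effects model, and that logistic curve had two parameters.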

AZD1775 = compound: C=CCn1c(=O)c2cnc(Nc3ccc(N4CCN(C)CC4)cc3)nc2n1-c1cccc(C(C)(C)O)n1 [AZD1775]; conditions: max 3 µM
Procedure, shortened: as §1

Trametinib = compound: CC(=O)Nc1cccc(-n2c(=O)n(C3CC3)c(=O)c3c(Nc4ccc(I)cc4F)n(C)c(=O)c(C)c32)c1 [Trametinib]; conditions: max 1 µM
Procedure, shortened: as §1

Palbociclib = compound: CC(=O)c1c(C)c2cnc(Nc3ccc(N4CCNCC4)cn3)nc2n(C2CCCC2)c1=O [Palbociclib]; conditions: max 10 µM
Procedure, shortened: as §1

AZD1390 = compound: CC(C)n1c(=O)n(C)c2cnc3cc(F)c(-c4ccc(OCCCN5CCCCC5)nc4)cc3c21 [AZD1390]; conditions: max 0.3 µM
Procedure, shortened: as §1

Venetoclax = compound: CC1(C)CCC(CN2CCN(c3ccc(C(=O)NS(=O)(=O)c4ccc(NCC5CCOCC5)c([N+](=O)[O-])c4)c(Oc4cnc5[nH]ccc5c4)c3)CC2)=C(c2ccc(Cl)cc2)C1 [Venetoclax]; conditions: max 1 µM
Procedure, shortened: as §1

Dasatinib = compound: CC1=C(C(=CC=C1)Cl)NC(=O)C2=CN=C(S2)NC3=CC(=NC(=N3)C)N4CCN(CC4)CCO [Dasatinib]; conditions: max 2 µM
Procedure, shortened: as §1

SG3199 = compound: CC1=CN2[C@@H](C1)C=NC3=CC(=C(C=C3C2=O)OC)OCCCCCOC4=C(C=C5C(=C4)N=C[C@@H]6CC(=CN6C5=O)C)OC [SG3199]; conditions: max 0.001 µM
Procedure, shortened: as §1

AZD2811 = compound: CCN(CCO)CCCOc1ccc2c(Nc3cc(CC(=O)Nc4cccc(F)c4)[nH]n3)ncnc2c1 [AZD2811]; conditions: max 1 µM
Procedure, shortened: as §1

SN-38 = compound: CCc1c2c(nc3ccc(O)cc13)-c1cc3c(c(=O)n1C2)COC(=O)[C@]3(O)CC [SN-38]; conditions: max 0.3 µM
Procedure, shortened: as §1

AZD0156 = compound: CN(C)CCCOc1ccc(-c2ccc3ncc4c(c3c2)n(C2CCOCC2)c(=O)n4C)cn1 [AZD0156]; conditions: max 3 µM
Procedure, shortened: as §1

AZD4320 = compound: CN(CC[C@H](CSC1=CC=CC=C1)NC2=C(C=C(C=C2)S(=O)(=O)NC(=O)C3=CC=C(C=C3)N4CCC(CC4)[C@H](C5=CC=CC=C5C6=CC=C(C=C6)Cl)O)S(=O)(=O)C(F)(F)F)CCO [AZD4320]; conditions: max 1 µM
Procedure, shortened: as §1

Alisertib = compound: COc1cc(Nc2ncc3c(n2)-c2ccc(Cl)cc2C(c2c(F)cccc2OC)=NC3)ccc1C(=O)O [Alisertib]; conditions: max 10 µM
Procedure, shortened: as §1

Gefitinib = compound: COc1cc2ncnc(Nc3ccc(F)c(Cl)c3)c2cc1OCCCN1CCOCC1 [Gefitinib]; conditions: max 10 µM
Procedure, shortened: as §1

Prexasertib = compound: COc1cccc(OCCCN)c1-c1cc(Nc2cnc(C#N)cn2)n[nH]1 [Prexasertib]; conditions: max 1 µM
Procedure, shortened: as §1

Doxorubicin = compound: COc1cccc2c1C(=O)c1c(O)c3c(c(O)c1C2=O)C[C@@](O)(C(=O)CO)C[C@@H]3O[C@H]1C[C@H](N)[C@H](O)[C@H](C)O1 [Doxorubicin]; conditions: max 1 µM
Procedure, shortened: as §1

AZD5153 = compound: COc1nnc2ccc(N3CCC(c4ccc(OCCN5CCN(C)C(=O)[C@H]5C)cc4)CC3)nn12 [AZD5153]; conditions: max 1 µM
Procedure, shortened: as §1

Lapatinib = compound: CS(=O)(=O)CCNCc1ccc(-c2ccc3ncnc(Nc4ccc(OCc5cccc(F)c5)c(Cl)c4)c3c2)o1 [Lapatinib]; conditions: max 10 µM
Procedure, shortened: as §1

AZD8186 = compound: C[C@@H](Nc1cc(F)cc(F)c1)c1cc(C(=O)N(C)C)cc2c(=O)cc(N3CCOCC3)oc12 [AZD8186]; conditions: max 3 µM
Procedure, shortened: as §1

Crizotinib = compound: C[C@@H](Oc1cc(-c2cnn(C3CCNCC3)c2)cnc1N)c1c(Cl)ccc(F)c1Cl [Crizotinib]; conditions: max 10 µM
Procedure, shortened: as §1

Savolitinib = compound: C[C@@H](c1ccc2nccn2c1)n1nnc2ncc(-c3cnn(C)c3)nc21 [Savolitinib]; conditions: max 1 µM
Procedure, shortened: as §1

AZD6738 = compound: C[C@@H]1COCCN1C2=NC(=NC(=C2)C3(CC3)[S@](=N)(=O)C)C4=C5C=CNC5=NC=C4 [AZD6738]; conditions: max 10 µM
Procedure, shortened: as §1

AZD5991 = compound: Cc1c2c(nn1C)CSCc1cc(n(C)n1)CSc1cc(c3ccccc3c1)OCCCc1c(C(=O)O)n(C)c3c-2c(Cl)ccc13 [AZD5991]; conditions: max 1 µM
Procedure, shortened: as §1

AZD7648 = compound: Cc1cc2ncnn2cc1Nc1ncc2c(n1)n(C1CCOCC1)c(=O)n2C [AZD7648]; conditions: max 10 µM
Procedure, shortened: as §1

Taselisib = compound: Cc1nc(-c2cn3c(n2)-c2ccc(-c4cnn(C(C)(C)C(N)=O)c4)cc2OCC3)n(C(C)C)n1 [Taselisib]; conditions: max 10 µM
Procedure, shortened: as §1

Selumetinib = compound: Cn1cnc2c(F)c(Nc3ccc(Br)cc3Cl)c(C(=O)NOCCO)cc21 [Selumetinib]; conditions: max 10 µM
Procedure, shortened: as §1

Olaparib = compound: O=C(c1cc(Cc2n[nH]c(=O)c3ccccc23)ccc1F)N1CCN(C(=O)C2CC2)CC1 [Olaparib]; conditions: max 10 µM
Procedure, shortened: as §1

MK-2206 = compound: NC1(c2ccc(-c3nc4ccn5c(=O)[nH]nc5c4cc3-c3ccccc3)cc2)CCC1 [MK-2206]; conditions: max 10 µM
Procedure, shortened: as §1

Cell Line | IC50, cell viability 72 h (Capivasertib) | IC50, cell viability 72 h (AZD1775) | IC50, cell viability 72 h (Trametinib) | IC50, cell viability 72 h (Palbociclib) | IC50, cell viability 72 h (AZD1390) | IC50, cell viability 72 h (Venetoclax) | IC50, cell viability 72 h (Dasatinib) | IC50, cell viability 72 h (SG3199) | IC50, cell viability 72 h (AZD2811) | IC50, cell viability 72 h (SN-38) | IC50, cell viability 72 h (AZD0156) | IC50, cell viability 72 h (AZD4320) | IC50, cell viability 72 h (Alisertib) | IC50, cell viability 72 h (Gefitinib) | IC50, cell viability 72 h (Prexasertib) | IC50, cell viability 72 h (Doxorubicin) | IC50, cell viability 72 h (AZD5153) | IC50, cell viability 72 h (Lapatinib) | IC50, cell viability 72 h (AZD8186) | IC50, cell viability 72 h (Crizotinib) | IC50, cell viability 72 h (Savolitinib) | IC50, cell viability 72 h (AZD6738) | IC50, cell viability 72 h (AZD5991) | IC50, cell viability 72 h (AZD7648) | IC50, cell viability 72 h (Taselisib) | IC50, cell viability 72 h (Selumetinib) | IC50, cell viability 72 h (Olaparib) | IC50, cell viability 72 h (MK-2206)
LNCaP-Clone-FGC (Prostate Carcinoma) | 134 nM | 811 nM | > 1000 nM | > 10000 nM | > 300 nM | > 1000 nM | > 2000 nM | > 1 nM | > 1000 nM | 30.8 nM | > 3000 nM | > 1000 nM | > 10000 nM | > 10000 nM | 35.6 nM | 170 nM | 94.4 nM | > 10000 nM | 129 nM | 8700 nM | > 1000 nM | 3580 nM | > 1000 nM | > 10000 nM | 957 nM | > 10000 nM | > 10000 nM | 
LU-135 (Small Cell Lung Carcinoma) | > 10000 nM | 1840 nM | > 1000 nM | > 10000 nM | > 300 nM | > 1000 nM | > 2000 nM | > 1 nM | 25.7 nM | 27.9 nM | > 3000 nM | 17.6 nM | 317 nM | > 10000 nM | 343 nM | 214 nM | 66.1 nM | 9730 nM | > 3000 nM | 2590 nM | > 1000 nM | 6100 nM | > 1000 nM | > 10000 nM | > 10000 nM | > 10000 nM | > 10000 nM | 
MDA-MB-361 (Breast Carcinoma) | 9810 nM | 515 nM | > 1000 nM | > 10000 nM | > 300 nM | > 1000 nM | > 2000 nM | > 1 nM | > 1000 nM | 275 nM | > 3000 nM | > 1000 nM | > 10000 nM | > 10000 nM | 6.52 nM | > 1000 nM | > 1000 nM | > 10000 nM | > 3000 nM | > 10000 nM | > 1000 nM | 2180 nM | 579 nM | > 10000 nM | 103 nM | > 10000 nM | > 10000 nM | 
MFE-296 (Endometrial Carcinoma) | > 10000 nM | > 3000 nM | > 1000 nM | > 10000 nM | > 300 nM | > 1000 nM | > 2000 nM | > 1 nM | > 1000 nM | 158 nM | > 3000 nM | > 1000 nM | > 10000 nM | > 10000 nM | 385 nM | > 1000 nM | > 1000 nM | > 10000 nM | > 3000 nM | > 10000 nM | > 1000 nM | > 10000 nM | > 1000 nM | > 10000 nM | > 10000 nM | > 10000 nM | > 10000 nM | > 10000 nM
